“Also recorded” adds a separate entry of the source. Read-outs that look alike come from different tables or passages of the source.
What was measured:
[1] = levetiracetam blood plasma levels in aged-impaired rats; format: in vivo; details: rat, 60 mg/kg/day, 28-day treatment, read-out: mean levetiracetam blood plasma level
Excerpt: Rats: Blood was drawn from aged-impaired rats by cardiac puncture during perfusion after a 28-day levetiracetam treatment period and sent for analysis of levetiracetam plasma levels by MedTox Laboratories in St. Paul, Minn.

[2] = test system: reelin in Entorhinal Cortex (EC2); assay: reelin in situ hybridization in entorhinal cortex after chronic levetiracetam; format: in vivo, rat; details: levetiracetam 10 mg/kg/day, osmotic minipumps, four weeks (28 days), aged-impaired rats
Experimental: Under isoflurane anesthesia, memory-impaired aged rats were implanted subcutaneously in the intrascapular region with osmotic mini-pumps (ALZET, Durect Corporation, Cupertino, Calif.) with levetiracetam (10 mg/kg/day) or saline vehicle for four weeks prior to perfusion. Young rats, which served as controls, received either saline vehicle in mini-pumps or no implantation.
At the end of the 4-week treatment period, rats were anesthetized with isoflurane and perfused transcardiacally with 0.1 M phosphate buffer saline, followed by 4% paraformaldehyde in phosphate buffer. Brains were removed and post-fixed in paraformaldehyde overnight. The brains were then moved into 4% paraformaldehyde in phosphate buffer containing 16% sucrose. […]
Probe templates were synthesized as described in Haberman et al. (2008). […] The final probe was resuspended in RNase-free water and the specific activity was determined by scintillation counter.
In situ hybridization was carried out as described by Haberman et al., (2008). […] Slides were dried overnight, exposed to a phosphoimager screen, and quantified by using ImageQuant (GE Healthcare). Digital images were acquired of entorhinal cortical sections from the same levels for all animals and the subregion of interest was outlined and quantified. […]

aMCI subjects = assay: Verbal Paired Associates Test - Delayed Recall; format: in vivo, human; details: levetiracetam 125 mg twice a day for two weeks
Excerpt: Breaks are provided to the subject as needed.

[3] = test system: Dentate Gyrus/CA3 region of aMCI patients; assay: fMRI activity in DG/CA3 during lure stimuli correctly identified as similar; format: in vivo, human; details: aMCI subjects
[4] = levetiracetam blood plasma levels in aMCI subjects; format: in vivo; details: human, upon completion of treatment, read-out: mean levetiracetam blood plasma level
Excerpt: At the end of the first drug/placebo period 2 weeks after the Baseline Visit, the medical, neurological and psychiatric evaluations and cognitive testing are repeated. The subject is also clinically evaluated for suicidal ideation. Blood is drawn again to repeat the standard tests and to determine whether there are any changes related to drug treatment; the subject's blood levetiracetam level is also obtained. All medication dispensed at the Baseline Visit (drug or placebo) is collected and subject compliance with the medication regimen is assessed. The first fMRI session (with cognitive tests) is conducted on the same day, either immediately before or immediately after the clinical assessment. Subjects discontinue first period treatment at this visit.
At approximately 2 weeks after the Washout Visit (i.e., 2 weeks after starting the second treatment period), the medical, neurological and psychiatric evaluations and the cognitive testing are repeated. The subject is clinically evaluated for suicidal ideation. Blood is drawn again to repeat the standard tests and to determine whether there were any changes related to drug treatment; the subject's blood levetiracetam level is also obtained. All medication dispensed at the Washout Visit is collected and subject compliance with the medication regimen is assessed. The second fMRI session (with cognitive tests) is repeated on the same day, either immediately before or immediately after the clinical assessment.
Human – in the human studies described in Examples 3 and 4, a subject's levetiracetam blood plasma level was assessed at each visit. The subject's blood was drawn by the Johns Hopkins Phlebotomy Service and analysis of levetiracetam blood plasma levels was conducted either by the Johns Hopkins Core laboratory or by MedTox Laboratories in St. Paul, Minn. for the 62.5 mg BID cohort, the 125 mg BID cohort and the 250 mg BID cohort.

CC[C@@H](C(N)=O)N1CCCC1=O [levetiracetam, (2S)-2-(2-oxopyrrolidin-1-yl)butanamide]
concentration at 28 days [1]: 22400 ng/mL | levels of reelin in Entorhinal Cortex (EC2) (reelin mRNA expression) [2]: significantly increased; also recorded: restores | performance in Verbal Paired Associates Test—Delayed Recall (aMCI subjects): fail to rescue performance | DG/CA3 hyperactivity (fMRI) ([3]; levetiracetam 62.5 mg BID for two weeks): does not significantly reduce | DG/CA3 activity during successful memory judgments (fMRI) ([3]; levetiracetam 125 mg twice a day for two weeks vs placebo): reduces DG/CA3 hyper-activity | DG/CA3 hyperactivity (fMRI) ([3]; levetiracetam 250 mg BID for two weeks): does not significantly reduce | concentration at 2 weeks ([4]; 125 mg BID cohort): 4400 ng/mL | concentration at 2 weeks ([4]; oral, 62.5 mg BID cohort): 2880 ng/mL | concentration at 2 weeks ([4]; oral, 250 mg BID cohort): 7900 ng/mL

Reference: patent US20160030391A1, “METHODS AND COMPOSITIONS FOR IMPROVING COGNITIVE FUNCTION” (THE JOHNS HOPKINS UNIVERSITY, priority 2013, published 2016)
